Values after ≈ are worked out from the molar mass of the structure shown.
How the values were obtained:
Aspergillus flavus = assay: MIC/MFC broth dilution (CLSI), clinical isolates; format: cell-based; settings: A. Flavus, 3 isolates, 48 h at 37° C.
Protocol: (§1) Isolates of Aspergillus fumigatus, Aspergillus flavus, Aspergillus terreus Aspergillus niger, Rhizopus oryzae, Candida albicans and Candida krusei were isolated from patients in Israeli hospitals and used for in vitro efficacy studies.
(§2) Efficacy was evaluated by measuring minimum inhibitory concentration (MIC) and minimum fungicidal concentration (MFC) values for fungal isolates. Testing of isolates was performed according to the Clinical & Laboratory Standards Institute (CLSI) method. (CLSI. 2008. M27-A3 Reference method for broth dilution antifungal susceptibility testing of yeasts; Approved Standard—3rd edition. Clinical and Laboratory Standards Institute, Wayne). RPMI MOPS media was used throughout the experiment as growth and dilution media. Spores and yeast cells were harvested in 0.05% Tween from 24-48 h and cultures were grown in rich yeast extract-agar-glucose (YAG) medium (composed of: 0.5% w/v yeast extract, 1% w/v glucose, 10 millimolar (mM) MgCl2, supplemented with 0.1% v/v trace elements solution, and 0.2% v/v vitamin mix). The spores and the yeast cells were counted and diluted to a final concentration of 2.5×10^4 per ml. A stock solution of 5 mg/ml was prepared in dimethylsulfoxide for free AMB. Compounds 4 and 6 were prepared in sterile saline. Double dilutions of each drug were performed in 100 μL volume of RPMI-MOPS in 96 well plates beginning with a final concentration of 32 micrograms (μg)/well of each drug to 0.06 μg/well. 2500 spores or yeast cells were added to each well. Results were recorded 48 h post incubation at 37° C. […] The MFC was defined as the lowest drug concentration that yielded three or fewer colonies (i.e. 99% of the inoculum was killed).

Aspergillus fumigatus = assay: MIC/MFC broth dilution (CLSI), clinical isolates; format: cell-based; settings: A. fumigatus, 4 isolates, 48 h at 37° C.
Protocol: as §1, §2

Aspergillus niger = assay: MIC/MFC broth dilution (CLSI), clinical isolates; format: cell-based; settings: A. niger, 3 isolates, 48 h at 37° C.
Protocol: as §1, §2

Aspergillus terreus = assay: MIC/MFC broth dilution (CLSI), clinical isolates; format: cell-based; settings: listed as printed C. terreus, 1 isolate, 48 h at 37° C.
Protocol: as §1, §2

Candida albicans = assay: MIC/MFC broth dilution (CLSI), clinical isolates; format: cell-based; settings: C. albicans, 2 isolates, 48 h at 37° C.
Protocol: as §1, §2

Candida krusei = assay: MIC/MFC broth dilution (CLSI), clinical isolates; format: cell-based; settings: C. krusei, 3 isolates, 48 h at 37° C.
Protocol: as §1, §2

Rhizopus oryzae = assay: MIC/MFC broth dilution (CLSI), clinical isolates; format: cell-based; settings: 1 isolate, 48 h at 37° C.
Protocol: as §1, §2

A. fumigatus (Af 293) = assay: MIC of compound 6, AMB and FMOC-6; format: cell-based, Aspergillus fumigatus
Protocol: as §2
In addition, the amine protected equivalent of compound 6 in which the amine of compound 6 was protected with an FMOC group was tested (designated FMOC-6) to determine MIC versus AMB and versus compound 6 against A. fumigatus (Af 293) and C. albicans (CBS562).

human erythrocytes = assay: In-vitro toxicity (hemolysis) study; format: cell-based; settings: 6 μg/ml; for toxicity to erythrocytes: assay conditions of FIG. 4B
Protocol: Reference is made to FIG. 4B. Fresh human erythrocytes were diluted 1:100 in PBS, and incubated in an Eppendorf tube while rotating slowly in the presence of 6 μg/ml of each of compound 4 and compound 6. Amphotericin B was used as positive control. Sterile double distilled water served as a control for 100% hemolysis. After 1, 3, 5 and 21 h, 20 μl of each test tube were removed and diluted in 180 μl PBS. Samples were centrifuged for 10 minutes at 1200 RPM and the optical density of the supernatant was measured at 425 nm.

C. albicans CBS 562 = assay: Experimental systemic murine candidiasis, survival; format: in vivo, mice; settings: four daily injections, 24 days
Protocol: Reference is Made to FIG. 5. Efficacy of PAD-AMB was Tested on Naïve 6 Week Old female ICR mice (n=20). Experimental systemic murine candidiasis was induced by intravenous inoculation of C. albicans CBS 562 into the tail vein using an inoculum of 5×10^4 cells in 0.2 ml per mouse. Fungal count was determined by microscopic counts on a haemocytometer. Treatment began 24 h after inoculation of C. albicans and consisted of four consecutive daily injections of Compound 6 at a range of 1.75-8.75 mg/kg/day relative to mouse body weight. Control groups included infected untreated mice and mice treated with AMB (1 mg/kg/day body weight). Survival and mouse body weight were monitored for 24 days. Survival for the various mouse groups is shown graphically in FIG. 5.

C. albicans = assay: Fungal burden in kidneys of infected mice; format: in vivo; settings: AMB 1 mg/kg; Compound 6 1.75, 3.5 and 7 mg/kg
Protocol: Reference is made to FIGS. 6A-E. ICR female mice were inoculated with C. albicans in groups of 3 as described in example 6B and were killed 48 hours later for assessment of fungal burden. One kidney and the spleen were removed aseptically from each animal and homogenized in 1 mL of sterile normal saline. Serial 10-fold dilutions of the homogenates were spread on YAG plates, and colony-forming units (CFU)/organ was determined from the colony count after 24 hours incubation at 37° C. All mouse experiments were performed in duplicates.
At necropsy, fungal burden in mouse tissues was evaluated. […] FIGS. 6C-E show micrographs of mice treated with Compound 6 at dosages of 1.75 mg/kg, 3.5 mg/kg and 7 mg/kg, respectively.

[1] = Solubility in 0.9% saline after vortex, sonication and centrifuge; format: physicochemical
[2] = Stability (hydrolysis) in phosphate buffered saline; format: physicochemical

| SMILES | MFC (Aspergillus flavus) | MIC (Aspergillus flavus) | MFC (Aspergillus fumigatus) | MIC (Aspergillus fumigatus) | MFC (Aspergillus niger) | MIC (Aspergillus niger) | MFC (Aspergillus terreus) | MIC (Aspergillus terreus) | MFC (Candida albicans) | MIC (Candida albicans) | MFC (Candida krusei) | MIC (Candida krusei) | MFC (Rhizopus oryzae) | MIC (Rhizopus oryzae) | MIC (A. fumigatus (Af 293)) | toxicity to erythrocytes (human erythrocytes) | fungal hyphae in kidney sections (Fontana-Masson silver staining) (C. albicans) | other results |
| --- | --- | --- | --- | --- | --- | --- | --- | --- | --- | --- | --- | --- | --- | --- | --- | --- | --- | --- |
| C[C@@H]1[C@H](O)[C@@H](C)/C=C/C=C/C=C/C=C/C=C/C=C/C=C/[C@H](O[C@@H]2O[C@H](C)[C@@H](O)[C@H](N)[C@@H]2O)C[C@@H]2O[C@](O)(C[C@@H](O)C[C@@H](O)[C@H](O)CC[C@@H](O)C[C@@H](O)CC(=O)O[C@H]1C)C[C@H](O)[C@H]2C(=O)O [AMB, Amphotericin B] | 0.5 to 1 µg/mL | 0.5 to 1 µg/mL | 0.5 to 4 µg/mL | 0.25 to 1 µg/mL | 0.5 to 1 µg/mL | 0.5 to 1 µg/mL | 4 µg/mL (≈ 4.33 µM) | 2 µg/mL (≈ 2.16 µM) | 0.5 µg/mL (≈ 0.541 µM) | 0.25 µg/mL (≈ 0.271 µM) | 1 to 2 µg/mL | 0.5 µg/mL (≈ 0.541 µM) | 0.25 µg/mL (≈ 0.271 µM) | 0.25 µg/mL (≈ 0.271 µM) | 0.5 µg/mL | very toxic | barely detectable | hemolysis (human erythrocytes; after 3 h of agitation): 76%; mice rescued (survival) (C. albicans CBS 562; 1 mg/kg/day): 10 of the 12 |
| COC(=O)C1C(O)CC2(O)CC(O)CC(O)C(O)CCC(O)CC(O)CC(=O)OC(C)C(C)C(O)C(C)C=CC=CC=CC=CC=CC=CC=CC(OC3OC(C)C(O)C(NC(=O)CCOCCOCCOCCOCCOCCOCCOCCOCCN)C3O)CC1O2 (stereo not drawn) [Compound 6, amphotericin B amide, methyl ester-PEG(8)-amine] | 2 to 4 µg/mL | 2 to 4 µg/mL | 2 to 8 µg/mL | 1 to 8 µg/mL | 2 µg/mL (≈ 1.47 µM) | 2 µg/mL (≈ 1.47 µM) | 16 µg/mL (≈ 11.8 µM) | 16 µg/mL (≈ 11.8 µM) | 2 µg/mL (≈ 1.47 µM) | 1 µg/mL (≈ 0.734 µM) | 4 µg/mL (≈ 2.94 µM) | 2 µg/mL (≈ 1.47 µM) | 4 µg/mL (≈ 2.94 µM) | 4 µg/mL (≈ 2.94 µM) | 2 µg/mL | negligible toxicity | barely detectable | increased solubility relative to corresponding non-PEG-conjugated AMB compounds [1]: greater than 700 fold; hydrolysis after 4 hours ([2]; 4 hours): no hydrolysis could be observed; level of hydrolysis after 24 hours ([2]; 24 hours): 0.8%; hemolytic activity (human erythrocytes; after 3 h of agitation): only slightly hemolytic; mice rescued (survival) (C. albicans CBS 562; 3.5 mg/kg): the same level of efficacy; mice rescued (survival) (C. albicans CBS 562; 7 mg/kg): rescued all of the mice |

From patent publication US9750817B2, “Amphotericin B derivatives” (priority 2015, dated 2017)
